According to ChEMBL document CHEMBL1201862, “PubChem BioAssay data set” (2004):
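Dose response: 5 concentrations. Exposure: 48 h. Format: 96-well plates. Endpoint: linear interpolation; highest concentration if not reached. Abbreviation: GI50, concentration required for 50% inhibition of growth.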 Active and inactive are the calls of the source. Cut-off read from the data, not from the text of the source: active = GI50 up to about 1.1 µM and inactive = higher.

What was measured:
Experiment in all cases: growth of human tumour cells (NCI), 48 h
HOP-92 = tested on: HOP-92
SNB-19 = tested on: SNB-19
NCI-H23 = tested on: NCI-H23
KM12 = tested on: KM12
SNB-75 = tested on: SNB-75
TK-10 = tested on: TK-10
SK-MEL-5 = tested on: SK-MEL-5
A498 = tested on: A498
PC-3 = tested on: PC-3
T47D = tested on: T47D
UACC-257 = tested on: UACC-257
HCT-116 = tested on: HCT-116
RXF 393 = tested on: RXF 393
SR = tested on: SR
LOX IMVI = tested on: LOX IMVI
OVCAR-8 = tested on: OVCAR-8
SK-OV-3 = tested on: SK-OV-3
Malme-3M = tested on: Malme-3M
HT-29 = tested on: HT-29
NCI-H522 = tested on: NCI-H522
DU-145 = tested on: DU-145
SK-MEL-28 = tested on: SK-MEL-28
COLO 205 = tested on: COLO 205
BT-549 = tested on: BT-549
SN12C = tested on: SN12C
M14 = tested on: M14
SF-295 = tested on: SF-295
U-251 = tested on: U-251
SK-MEL-2 = tested on: SK-MEL-2
SF-539 = tested on: SF-539
MDA-N = tested on: MDA-N
CCRF-CEM = tested on: CCRF-CEM
EKVX = tested on: EKVX
UACC-62 = tested on: UACC-62
MOLT-4 = tested on: MOLT-4
786-0 = tested on: 786-0
MCF7 = tested on: MCF7
NCI-H460 = tested on: NCI-H460
NCI/ADR-RES = tested on: NCI/ADR-RES
CAKI-1 = tested on: CAKI-1
Hs-578T = tested on: Hs-578T
SF-268 = tested on: SF-268
ACHN = tested on: ACHN
HCC 2998 = tested on: HCC 2998
HOP-62 = tested on: HOP-62
OVCAR-3 = tested on: OVCAR-3
MDA-MB-435 = tested on: MDA-MB-435
OVCAR-5 = tested on: OVCAR-5
HCT-15 = tested on: HCT-15
K562 = tested on: K562
MDA-MB-231 = tested on: MDA-MB-231
SW-620 = tested on: SW-620
UO-31 = tested on: UO-31
A549 = tested on: A549
HL-60 = tested on: HL-60
RPMI-8226 = tested on: RPMI-8226
IGROV-1 = tested on: IGROV-1
NCI-H226 = tested on: NCI-H226
OVCAR-4 = tested on: OVCAR-4

Q: Which results are given for `Cc1cn2c(/C=C3/C(=O)Nc4ccccc43)c(C)nc2s1`?
A: GI50 (HOP-92): 14.4 µM (inactive); GI50 (SNB-19): 3.32 µM (inactive); GI50 (NCI-H23): 4.19 µM (inactive); GI50 (KM12): 0.261 µM (active); GI50 (SNB-75): 3.79 µM (inactive); GI50 (TK-10): 3.78 µM (inactive); GI50 (SK-MEL-5): 0.516 µM (active); GI50 (A498): 1.33 µM (inactive); GI50 (PC-3): 1.3 µM (inactive); GI50 (T47D): 0.665 µM (active); GI50 (UACC-257): 2.78 µM (inactive); GI50 (HCT-116): 0.867 µM (active); GI50 (RXF 393): 2.6 µM (inactive); GI50 (SR): 0.507 µM (active); GI50 (LOX IMVI): 3.46 µM (inactive); GI50 (OVCAR-8): 3.54 µM (inactive); GI50 (SK-OV-3): 3.15 µM (inactive); GI50 (Malme-3M): 2.61 µM (inactive); GI50 (HT-29): 0.605 µM (active); GI50 (NCI-H522): 1.32 µM (inactive); GI50 (DU-145): 3.89 µM (inactive); GI50 (SK-MEL-28): 5.96 µM (inactive); GI50 (COLO 205): 0.433 µM (active); GI50 (BT-549): 3.95 µM (inactive); GI50 (SN12C): 7.03 µM (inactive); GI50 (M14): 0.991 µM (active); GI50 (SF-295): 0.652 µM (active); GI50 (U-251): 2.24 µM (inactive); GI50 (SK-MEL-2): 1.32 µM (inactive); GI50 (SF-539): 1.33 µM (inactive); GI50 (MDA-N): 0.165 µM (active); GI50 (CCRF-CEM): 1.03 µM (active); GI50 (EKVX): 6.11 µM (inactive); GI50 (UACC-62): 1.33 µM (inactive); GI50 (MOLT-4): 0.581 µM (active); GI50 (786-0): 3.82 µM (inactive); GI50 (MCF7): 0.547 µM (active); GI50 (NCI-H460): 0.653 µM (active); GI50 (NCI/ADR-RES): 2.39 µM (inactive); GI50 (CAKI-1): 3.07 µM (inactive); GI50 (Hs-578T): 1.99 µM (inactive); GI50 (SF-268): 3.98 µM (inactive); GI50 (ACHN): 6.07 µM (inactive); GI50 (HCC 2998): 1.84 µM (inactive); GI50 (HOP-62): 3.79 µM (inactive); GI50 (OVCAR-3): 0.787 µM (active); GI50 (MDA-MB-435): 0.138 µM (active); GI50 (OVCAR-5): 6.55 µM (inactive); GI50 (HCT-15): 0.679 µM; GI50 (K562): 0.431 µM (active); GI50 (MDA-MB-231): 1.48 µM (inactive); GI50 (SW-620): 0.504 µM (active); GI50 (UO-31): 5.6 µM (inactive); GI50 (A549): 2.02 µM (inactive); GI50 (HL-60): 0.321 µM (active); GI50 (RPMI-8226): 1.75 µM (inactive); GI50 (IGROV-1): 0.634 µM (active)

Q: `CN1CCN(CC(=O)N2c3ccccc3Sc3cc4ccccc4cc32)CC1` was tested. Which GI50 (HOP-92) did it give?
A: 10.6 µM (inactive)

Q: What about the GI50 (SNB-19) of the same molecule?
A: 18.4 µM (inactive)

Q: What about the GI50 (NCI-H23) of the same molecule?
A: 19.7 µM (inactive)

Q: And the GI50 (KM12)?
A: 17 µM (inactive)

Q: And the GI50 (SNB-75)?
A: 14.5 µM (inactive)

Q: What about the GI50 (TK-10) of the same molecule?
A: 15.7 µM (inactive)

Q: What about the GI50 (SK-MEL-5) of the same molecule?
A: 17.5 µM (inactive)

Q: What about the GI50 (A498) of the same molecule?
A: 13.7 µM (inactive)

Q: What about the GI50 (PC-3) of the same molecule?
A: 14.3 µM (inactive)

Q: What about the GI50 (T47D) of the same molecule?
A: 19.7 µM (inactive)

Q: And the GI50 (UACC-257)?
A: 11.6 µM (inactive)

Q: And the GI50 (HCT-116)?
A: 10.1 µM (inactive)

Q: And the GI50 (RXF 393)?
A: 12.9 µM (inactive)

Q: What about the GI50 (SR) of the same molecule?
A: 13.9 µM (inactive)

Q: What about the GI50 (LOX IMVI) of the same molecule?
A: 15.5 µM (inactive)

Q: What about the GI50 (OVCAR-8) of the same molecule?
A: 17.5 µM (inactive)

Q: And the GI50 (SK-OV-3)?
A: 16.1 µM (inactive)

Q: What about the GI50 (Malme-3M) of the same molecule?
A: 13.6 µM (inactive)

Q: And the GI50 (HT-29)?
A: 4.31 µM (inactive)

Q: What about the GI50 (NCI-H522) of the same molecule?
A: 15 µM (inactive)

Q: What about the GI50 (DU-145) of the same molecule?
A: 15.9 µM (inactive)

Q: And the GI50 (SK-MEL-28)?
A: 14.6 µM (inactive)

Q: And the GI50 (COLO 205)?
A: 13.9 µM (inactive)

Q: What about the GI50 (BT-549) of the same molecule?
A: 15.1 µM (inactive)

Q: And the GI50 (SN12C)?
A: 12.1 µM (inactive)

Q: And the GI50 (M14)?
A: 13.8 µM (inactive)

Q: And the GI50 (SF-295)?
A: 14.7 µM (inactive)

Q: And the GI50 (U-251)?
A: 14.3 µM (inactive)

Q: And the GI50 (SK-MEL-2)?
A: 17.5 µM (inactive)

Q: And the GI50 (SF-539)?
A: 15.6 µM (inactive)

Q: What about the GI50 (MDA-N) of the same molecule?
A: 10 µM (inactive)

Q: What about the GI50 (CCRF-CEM) of the same molecule?
A: 26 µM (inactive)

Q: And the GI50 (EKVX)?
A: 11.8 µM (inactive)

Q: And the GI50 (UACC-62)?
A: 17.1 µM (inactive)

Q: What about the GI50 (MOLT-4) of the same molecule?
A: 12.2 µM (inactive)

Q: And the GI50 (786-0)?
A: 13.3 µM (inactive)

Q: And the GI50 (MCF7)?
A: 15.8 µM (inactive)

Q: And the GI50 (NCI-H460)?
A: 16 µM (inactive)

Q: And the GI50 (NCI/ADR-RES)?
A: 16.1 µM (inactive)

Q: What about the GI50 (CAKI-1) of the same molecule?
A: 13.1 µM (inactive)

Q: And the GI50 (Hs-578T)?
A: 11 µM (inactive)

Q: And the GI50 (SF-268)?
A: 11.6 µM (inactive)

Q: And the GI50 (ACHN)?
A: 16.4 µM (inactive)

Q: What about the GI50 (NCI-H226) of the same molecule?
A: 22.7 µM (inactive)

Q: What about the GI50 (HOP-62) of the same molecule?
A: 18.7 µM (inactive)

Q: And the GI50 (OVCAR-3)?
A: 12.9 µM (inactive)

Q: And the GI50 (MDA-MB-435)?
A: 11.4 µM (inactive)

Q: And the GI50 (OVCAR-5)?
A: 14.8 µM (inactive)

Q: What about the GI50 (HCT-15) of the same molecule?
A: 16.7 µM

Q: And the GI50 (K562)?
A: 15.9 µM (inactive)

Q: And the GI50 (MDA-MB-231)?
A: 14.6 µM (inactive)

Q: What about the GI50 (SW-620) of the same molecule?
A: 20.4 µM (inactive)

Q: And the GI50 (OVCAR-4)?
A: 15.5 µM (inactive)

Q: What about the GI50 (UO-31) of the same molecule?
A: 13.2 µM (inactive)

Q: And the GI50 (A549)?
A: 15.3 µM (inactive)

Q: And the GI50 (HL-60)?
A: 0.394 µM (active)

Q: What about the GI50 (RPMI-8226) of the same molecule?
A: 14.6 µM (inactive)

Q: What about the GI50 (IGROV-1) of the same molecule?
A: 16.5 µM (inactive)
